Patent publication US10064839B2, “Methods of treating liver diseases” (Zafgen, Inc., priority 2012, dated 2018)
In brackets after ≈: the same amount, converted by molar mass.

How the values were obtained:
Solubility = format: physicochemical; details: aqueous buffer; at pH 7.4
recombinant human MetAP2 = biological target: T1, recombinant human MetAP2 (Homo sapiens, UniProt P50579); experiment: Recombinant human MetAP2 inhibition assay (MAS substrate, Amplex red fluorescence); format: biochemical; details: first value of the cell; read-out: MetAP2/MetAP1 IC50 (nM): MetAP2
T1 construct: made in house; host or cells: Sf9 insect cells
T1 sequence (P50579 whole entry): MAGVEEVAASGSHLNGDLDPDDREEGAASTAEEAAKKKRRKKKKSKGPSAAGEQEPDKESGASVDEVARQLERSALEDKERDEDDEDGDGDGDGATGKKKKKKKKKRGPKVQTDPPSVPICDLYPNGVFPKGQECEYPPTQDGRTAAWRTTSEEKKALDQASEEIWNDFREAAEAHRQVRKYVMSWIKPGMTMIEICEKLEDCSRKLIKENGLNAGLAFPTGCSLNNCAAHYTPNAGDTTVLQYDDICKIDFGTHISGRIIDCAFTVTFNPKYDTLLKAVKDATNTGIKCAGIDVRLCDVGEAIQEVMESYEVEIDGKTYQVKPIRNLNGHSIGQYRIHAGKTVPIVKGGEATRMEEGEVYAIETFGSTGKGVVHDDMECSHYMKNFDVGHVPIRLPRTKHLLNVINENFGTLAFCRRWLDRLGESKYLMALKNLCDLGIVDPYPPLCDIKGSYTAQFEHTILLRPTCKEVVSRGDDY
Experimental: Compounds are tested for their capacity to inhibit recombinant human MetAP2 activity using the following assay.
Human recombinant MetAP2 expressed in Sf9 cells followed by affinity purification and EDTA treatment to remove endogenous active site cation was dialysed against MnCl2 to produce the manganese enzyme used in the assay. The assay was carried out for 30 minutes at 25° C. in 50 mM HEPES buffer containing 100 mM NaCl, pH 7.5 the presence of 0.75 mM Methionine-Alanine-Serine (MAS) substrate and 50 µg/ml amino acid oxidase using a dilution of purified MetAP2 giving >3-fold signal: noise. Cleavage of the substrate by MetAP2 and oxidation of free methionine by amino acid oxidase was detected and quantified using fluorescence generated by Amplex red (10-acetyl-3,7-dihydroxyphenoxazine) in combination with horseradish peroxidase which detects H2O2 released during the oxidation step. The fluorescent signal was detected using a multiwell fluorimeter. Compounds were diluted in DMSO prior to addition to assay buffer, the final DMSO concentration in the assay being 1%.
IC50 values are calculated using the XLfit software package (version 2.0.5).

CYP3A4 = CYP3A4 (Homo sapiens, UniProt P08684); experiment: CYP3A4 inhibition with pre-incubation; format: in vitro ADME; details: footnote to CYP IC50, HLM
Chain of CYP3A4 (P08684 whole entry): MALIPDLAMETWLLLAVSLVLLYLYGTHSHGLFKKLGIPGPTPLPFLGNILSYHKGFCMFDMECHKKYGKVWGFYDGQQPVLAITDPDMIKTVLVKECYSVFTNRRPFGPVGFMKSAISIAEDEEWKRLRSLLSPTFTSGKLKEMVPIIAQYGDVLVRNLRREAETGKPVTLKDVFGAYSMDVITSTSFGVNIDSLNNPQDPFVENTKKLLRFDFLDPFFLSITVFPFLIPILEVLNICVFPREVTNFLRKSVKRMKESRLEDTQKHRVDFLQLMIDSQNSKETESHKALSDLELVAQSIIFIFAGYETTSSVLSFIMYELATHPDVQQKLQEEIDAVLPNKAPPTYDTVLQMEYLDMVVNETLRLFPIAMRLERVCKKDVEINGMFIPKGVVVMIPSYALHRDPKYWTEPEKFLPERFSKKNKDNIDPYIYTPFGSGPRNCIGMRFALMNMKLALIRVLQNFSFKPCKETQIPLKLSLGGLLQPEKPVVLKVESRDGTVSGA

hERG = hERG (Homo sapiens, UniProt Q12809); experiment: hERG IC50
Chain of hERG (Q12809 whole entry): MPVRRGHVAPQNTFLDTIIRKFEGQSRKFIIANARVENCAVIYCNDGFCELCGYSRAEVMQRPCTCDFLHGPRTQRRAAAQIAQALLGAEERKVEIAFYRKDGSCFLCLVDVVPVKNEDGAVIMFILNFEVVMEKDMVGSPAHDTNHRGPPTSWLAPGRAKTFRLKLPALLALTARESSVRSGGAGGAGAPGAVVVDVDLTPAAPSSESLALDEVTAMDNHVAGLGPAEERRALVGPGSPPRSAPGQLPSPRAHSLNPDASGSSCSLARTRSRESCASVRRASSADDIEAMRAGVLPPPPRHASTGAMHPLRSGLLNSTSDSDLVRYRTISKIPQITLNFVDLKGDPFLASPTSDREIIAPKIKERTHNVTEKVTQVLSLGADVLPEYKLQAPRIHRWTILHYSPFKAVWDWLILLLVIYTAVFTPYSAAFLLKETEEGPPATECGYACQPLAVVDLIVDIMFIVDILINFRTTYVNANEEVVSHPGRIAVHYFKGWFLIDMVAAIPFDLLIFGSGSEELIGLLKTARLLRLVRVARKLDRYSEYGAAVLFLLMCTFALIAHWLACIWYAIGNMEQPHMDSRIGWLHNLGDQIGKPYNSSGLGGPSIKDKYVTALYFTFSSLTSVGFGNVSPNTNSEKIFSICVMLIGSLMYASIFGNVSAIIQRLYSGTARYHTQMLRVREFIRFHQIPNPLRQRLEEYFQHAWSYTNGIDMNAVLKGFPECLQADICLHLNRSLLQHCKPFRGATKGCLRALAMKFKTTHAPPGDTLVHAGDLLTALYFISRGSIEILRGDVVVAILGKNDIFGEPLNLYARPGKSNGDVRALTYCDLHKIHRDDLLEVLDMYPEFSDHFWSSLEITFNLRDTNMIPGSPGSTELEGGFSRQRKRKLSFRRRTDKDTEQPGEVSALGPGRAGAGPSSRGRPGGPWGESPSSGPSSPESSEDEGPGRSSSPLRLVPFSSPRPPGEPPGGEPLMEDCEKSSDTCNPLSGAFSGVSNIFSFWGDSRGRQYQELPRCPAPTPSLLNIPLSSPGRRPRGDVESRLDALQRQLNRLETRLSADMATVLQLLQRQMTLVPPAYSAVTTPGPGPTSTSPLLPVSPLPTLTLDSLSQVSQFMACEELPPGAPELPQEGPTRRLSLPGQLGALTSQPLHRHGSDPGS

HT1080 = HT1080 EC50; format: cell-based; details: Homo sapiens, HT-1080; second of two values 28/8, key not given
72 receptors and enzymes = experiment: CEREP screen; details: at 10 μM across 72 receptors and enzymes
[1] = i.v. and p.o. exposure study, rat; format: in vivo
Experimental: Mouse, rat and dog studies were conducted to assess i.v. and p.o. (oral) exposure.

CYP (isoform not given) = experiment: CYP IC50, HLM; format: in vitro ADME; details: human, human liver microsomes

In the case of `CCN(CC)C/C=C\c1cc(F)ccc1S(=O)(=O)Nc1ccc2c(c1C(=O)O)OC[C@@H]1C[C@H]21` (single isomer, unassigned) [Example 12], the solubility (Solubility) is reported as about 100 µg/mL (≈ 211 µM), the IC50 (recombinant human MetAP2) is reported as 25 nM and the AMES (AMES) is reported as “negative”. For the same compound, the “CYP3A4 signal with pre-incubation” value (CYP3A4) was “*CYP3A4 signal observed with pre-incubation”, the IC50 (hERG) was over 33 µM and the EC50 (HT1080) was 8 nM. For the same compound, the “CEREP screen, inhibition” value (72 receptors and enzymes) was under 35% inhibition at 10 μM, the Kp ([1]; liver/plasma, po, read-out: liver/plasma ratio) was 39 and the clearance ([1]; plasma, iv) was 54 mL/min/kg. For the same compound, the half-life ([1]; plasma, iv, read-out: Plasma T1/2 (converted)) was 72 min, the Vd ([1]; plasma, iv, read-out: Vss) was 3.4 L/kg and the AUC ([1]; plasma, po) was 356 ng·h/mL. The bioavailability ([1]; plasma, po) was 22% and the IC50 (CYP (isoform not given)) was over 10 µM.
